From patent US20190298717A1 (BOARD OF REGENTS, THE UNIVERSITY OF TEXAS SYSTEM, priority 2016, published 2019)

What was measured:
LC3 = details: 0, 5, 10 μM, ± bafilomycin 20 nM, 4 hours
Description: (§1) Results are expressed as means±SD from three independent experiments. […] Cell lysates were then subjected to Western blot analysis.
(§2) A cell titer glow luminescence assay was used to measure cell cytotoxicity. […] LC3, microtubule-associated protein 1 light chain 3, which is a homologue of Apg8p essential for autophagy in yeast, is processed posttranslationally into LC3-I in cytosol. LC3-I is then converted into LC3-II, which associates with autophagosome membranes. The ratio of LC3-II/LC3-I determines the status of the autophagy process.

SH-SY5Y cells [1] = system: SH-SY5Y cells
Description: as §1, §2

[2] = system: HEK293 overexpressing mutated tau-RD (P301L/V337M), Clone 9; details: 10 μM, 48 h
Experimental: Two monoclonal cell lines of HEK293 overexpressing mutated tau-RD (repetitive domain; P301L/V337M) were selected; 1) Clone 1: used as control expressing truncated tau from amino acid 244 to 372, with P301L/V337M mutations which produces soluble non-toxic tau, and 2) Clone 9: which generates an aggregated form of tau (11). Three parameters were measured: cell viability, NAD, and ATP content.

[3] = system: HEK293 tau aggregate-negative and aggregate-positive cells
Experimental: The inventors first measured the cell proliferation to evaluate the stress caused by expression of tau fibrils in aggregate-positive and negative cells (FIG. 6A). […] The inventors also measured the concentration of superoxide ions (O2-), a detrimental byproduct of oxidative phosphorylation, as an ROS representative. […] The inventors next measured expression of Nrf2 and HO-1 in the same cells (FIG. 6C). […] Aggregate-positive and -negative KD cells were treated with 200 μM H2O2 for 24 h. Cytotoxicity was measured as release of LDH.
(§3) Measurement of Reactive Oxygen Species. Superoxide concentration was measured by dihydroethidium (DHE). Black clear bottom 96 well plates were seeded with about 5000 HEK293 tau aggregate-negative (control) and aggregate-positive model cells per well and about 20000 SH-SY5Y cells (the NRF2 knockdown of both cell lines were also seeded). […] Fluorescence was measured by Spectramax Gemini XPS plate reader (Molecular Devices, Sunnyvale, Calif.) at 370 nm excitation and 420 nm emission wavelengths. […] Equal number of animals were transferred to a black bottom 96 well plate and fluorescence was measured same as above.

[4] = system: HeLa cells expressing EGFP-HD103Q; details: 48 hours
Description: The fraction of EGFP-positive cells expressing aggregates under different conditions were plotted as odds ratios taking Ctrl value as 1. Error bars show 95% confidence interval. […] Error bars show SD.

SH-SY5Y cells [5] = experiment: H2O2-EC50 of hydralazine and its analogs (protection from H2O2 stress); type: cell-based; details: Homo sapiens
Experimental: To generate intracellular aldehydes, the inventors treated human neuroblastoma cell line (SH-SY5Y) with 100 μM hydrogen peroxide (H2O2) for 24 h. Carbonyl groups were quantified using 2,4-DNPH (dinitrophenylhydrazine) assay.
Cell Viability and Cytotoxicity Assay. Cell growth was analyzed using the MTT cell viability assay. Briefly, at the end of incubation/treatment, MTT reagent was diluted in culture medium and aliquoted into each well. After incubation for 2 hours, the medium was aspirated and DMSO was aliquoted into each well to disrupt the cells and dissolve the intracellular MTT dyes. Absorbance was read at 570 nm wavelength in a 96-well plate reader. Cell toxicity was detected using a LDH cell toxicity assay kit (Promega, Fitchburg Wis.). This is a coupled enzymatic assay that detects a visible color signal initially described by Nachlas et. al. The reagent contained excess concentrations of lactate and NAD+as substrates to drive the LDH reaction and produce NADH. In the presence of diaphorase, NADH drives the enzyme-catalyzed conversion of iodonitro-tetrazolium violet to a red formazan product. Briefly, DMEM medium was withdrawn from each well of the plate after treatment and briefly centrifuged to get rid of floating cells or cell debris. Then, the medium supernatant was mixed with equal volume of substrate/enzyme mixture included in the kit (lactate, NAD+, diaphorase and iodonitro-tetrazolium violet), followed by incubation at room temperature for 15 minutes before the addition of acetic acid to cease the reaction. The absorbance was read at 490 nm in a 96-well plate reader. […] Cell viability assay was performed using CellTiter-Glo assay.

[6] = data not shown
[7] = system: NMNAT-1, SIRT1, SIRT5 and COX-IV
Description: Data were normalized to actin. […] The intensity of the bands was normalized to actin. Data are mean±SEM of triplicate measurements.

C. elegans = system: C. elegans
Experimental: as §3

GSH and GSSG = details: SH-SY5Y, 10 μM, 24 h
Experimental: GSH is regulated by the rate-limiting enzyme GCL consisted of GCLc and GCLm subunits. […] The inventors then used extracellular lactate dehydrogenase cytotoxicity assay to measure cell survival.
Measurement of GSH/GSSG. The intracellular GSH and GSSG content were determined using a GSH/GSSG-Glo Assay kit (Promega, Fitchburg Wis.) following the manufacturer's instructions. Briefly, after treatment, half of the cells were lysed using total lysis buffer and the other GSSG lysis buffer for 5 minutes. Luciferin generation reagents (luciferin-NT plus Glutathione-S-Transferase) were then added into each well, followed by incubation for 30 minutes. Finally, luciferin detection reagents including Ultra-Glo™ Luciferase were aliquoted into each well. After 10-minute incubation, luminescence was read in a 96-well plate reader. GSH level was calculated by subtracting GSSG level from the total, and GSH/GSSG ratio was calculated as ([Total]−[GSSG])/[GSSG].

NNc1nncc2ccccc12 [Hydralazine]
ratio of LC3-II/LC3-I (LC3): increase in the ratio of LC3-II/LC3-I
protection against oxidative stress under proteasomal inhibition by MG132 (SH-SY5Y cells [1]; MG132 10 μM, H2O2 100 μM, 4 hours): does not have an impact
protection against oxidative stress under autophagy inhibition with bafilomycin (SH-SY5Y cells [1]; bafilomycin 20 nM, H2O2 100 μM, 4 hours): significantly reduces the ability of hydralazine to protect cells
concentration at which no toxicity was observed (SH-SY5Y cells [1]; human, 48 h): up to 25 μM
concentration with significant decrease in cell viability compared to control (SH-SY5Y cells [1]; human, 48 h): ≥ 50 µM
cell viability, NAD, and ATP content of Clone 9 [2]: shows improvement in all three aspects
concentration of O2− ions in aggregate-positive KD cells ([3]; Nrf2 knockdown): No significant change
concentration of superoxide ([3]; aggregate-positive and -negative cells, 24 h): decreased in a dose-dependent manner
EGFP-HD103Q poly Q aggregates [4]: disappearance of higher order poly Q aggregates
EC50 (SH-SY5Y cells [5]): 6.78 µM
pro-oxidant environment (DCFH-DA intensity) [6]: does not create a mild pro-oxidant environment
transcription level of NMNAT-1, SIRT1, SIRT5 (qRT-PCR) ([7]; 20 μM, 12 hours): increased the transcription level
NMNAT-1, SIRT1, SIRT5 protein (Western blot) ([7]; 10 and 20 μM): up-regulated at the protein level
level of COX-IV ([7]; after 48 hours): significant increase
superoxide concentration in N2 worms (C. elegans): decreased superoxide concentration
GSH/GSSG ratio, higher (GSH and GSSG): 5%
intracellular GSH (GSH and GSSG): increased GSH
